Source: patent US7829110B2, “Surgical implant comprising an anabolic and a corticosteroid” (Ethicon, Inc., priority 2003, dated 2010)

System: fibroblast (human, dermal)
Test: fibroblast contraction (human, dermal)
Assay type: cell-based
Details: human dermal fibroblasts; even at low doses
Excerpt: Cortisone prevents fibroblast contraction (human, dermal) even at low doses (below 10^−6 M)

C[C@]12CCC(=O)C=C1CC[C@@H]1[C@@H]2C(=O)C[C@@]2(C)[C@H]1CC[C@]2(O)C(=O)CO [Cortisone, cortisone]
dose preventing fibroblast contraction: below 10^−6 M
